# From a melting point compilation (Tetko et al.; mined from patent text by program, amines drawn as free bases though some values may be those of a salt)
row,Structure (SMILES),melting point [°C]
1,CCCOc1c(OC)cc(NC(C)CCCN2C(=O)c3ccccc3C2=O)c2ncccc12 (configuration not stated),140 to 143
2,CC(=O)c1c(-c2ccccc2)nn(CC2CC2)c(=O)c1Nc1cccc2ncccc12,204 to 205
3,CC1CC(=O)NN=C1c1cccc(C(F)(F)F)c1 (configuration not stated),132 to 134
4,O=c1[nH]c2cccc(Cl)c2c(=O)n1CCCN1CC=C(c2ccc(Cl)cc2)CC1,190 to 194
5,O=C1CC(Nc2ccccc2)C(=O)N1c1ccccc1 (configuration not stated),211 to 214
6,O=c1c2ccc([N+](=O)[O-])cc2nc(C(S)c2ncnc3[nH]cnc23)n1-c1ccccc1Cl (configuration not stated),218
7,Cc1nc2cccc(OCC(C)(C)C(=O)NCC3CC3)c2c(N)c1C(=O)O,177 to 179
8,CC(=O)OCc1c2ccccc2cc2ccccc12,110 to 112
9,O=C(O)c1ccc(N2C(=O)CCC2C(=O)O)c([N+](=O)[O-])c1 (configuration not stated),235 to 237
10,CC(C)(C)c1cccc(S(=O)(=O)n2c(C(O)c3ccc(C(=O)O)s3)cc3cc(C(F)(F)F)ccc32)c1 (configuration not stated),90
11,O=C1NC(Cc2c[nH]c3ccccc23)C(=O)N1CCCN1CCC(c2ccccc2)CC1 (configuration not stated),179 to 180
12,CC(C)[C@H](NC(=O)N(C)Cc1cccnc1)C(=O)N[C@@H](Cc1ccccc1)[C@H](O)[C@@H](O)[C@H](Cc1ccccc1)NC(=O)[C@@H](NC(=O)N(C)Cc1cccnc1)C(C)C,95 to 97
13,CCOC(=O)C1=C(C)NC(c2csc(N)n2)=NC1c1ccc(F)cc1Cl (configuration not stated),95 to 110
14,CCOCc1nc2c(N)nc3cc(OCCCc4cccc(N)c4)ccc3c2n1CC(C)(C)O,164 to 166
15,CNC(=O)c1cc2c(Oc3ccc(-n4cncn4)cc3)cncc2s1,214 to 215
16,NNCCCCS(=O)(=O)O,152 to 154
17,CSCCC1OC2(CCCCC2)NC1=O (configuration not stated),109
18,CCOCc1nc2c(N)nc3ccccc3c2n1CCOCCNS(=O)(=O)C(C)C,139 to 142
19,CC(NC(=O)C(C)(Cc1c[nH]c2ccccc12)NCc1cc2ccccc2o1)c1ccn(C)c1 (configuration not stated),53 to 57
20,Cc1cc([N+](=O)[O-])c(C)nc1O,263
21,CS(=O)(=O)c1cccc(NC(=O)c2ccccc2O)c1,210 to 212
22,Cc1oc(-c2ccccc2)nc1COc1ccc(CON)cc1,68 to 69
23,COc1ccc(CSc2nnc(-c3ccnc(N)c3)o2)cc1F,166 to 167

row,Structure (SMILES),melting point [°C]
1,CC(=O)OCC(=O)C1(O)C(C)CC2C3CCC4=CC(=O)C=CC4(C)C3=CCC21C (configuration not stated),202 to 205
2,COc1c(C)cc(C(=O)O)cc1-c1ccccc1,165 to 168
3,CC(C)(C)C(=O)Oc1ccc(CCNc2nc(N)n3nc(-c4ccco4)nc3n2)cc1,208 to 210
4,COc1ccc(-c2nc(S(=O)(=O)c3ccc(C)cc3)n(Cc3ccccc3)c2-c2ccc(OC)cc2)cc1,154 to 156
5,CC(C)C(=C=O)NC(=O)Nc1ccc([N+](=O)[O-])cc1O,168 to 169
6,CC(C)(C)NCC(O)c1ccc(N)c(F)c1F (configuration not stated),133 to 135
7,O=C(O)CCCc1cc2nc(C(F)(F)F)ccc2n1S(=O)(=O)c1cccc2ccccc12,195
8,O=C(O)Cc1ccc(Br)cc1[N+](=O)[O-],166 to 168
9,O=c1nc(-c2cccc(S(=O)(=O)CCc3ccccc3)n2)sc2ccccc12,162 to 164
10,COc1cnc(C(=O)O)cc1Cl,209
11,COc1ccc(-c2nc(Cl)c(Oc3ccccc3OC)c(NS(=O)(=O)c3ccc(C(C)(C)C)cc3)n2)cc1,221 to 222
12,OC1CSC(Oc2cnc(Cl)c(F)c2)C(O)C1O (configuration not stated),198 to 200
13,COc1ccccc1OP(=O)(CN(CC#N)N=O)Oc1ccccc1OC,83 to 85
14,Fc1ccc(Cn2c(N3CCC(Nc4nc5ccccc5n4Cc4ccccc4)CC3)nc3ccccc32)cc1,164
15,CCCCCCCCCCOC(=O)c1ccc(O)c(OC)c1,40 to 40.5
16,C=CCn1c(=O)c(C(=O)OCC)c(O)c2ccc(C)nc21,110 to 112
17,Cc1cn(-c2nc(C3=Nc4ccc(-c5ccc(F)cc5)cc4NC(=O)C3)cs2)cn1,229
18,C=C(C)c1cc(-c2ccc(OCCNC(N)=O)cc2)n(-c2ccc(OC)nc2)n1,94 to 98
19,CCCc1nc2c(N)nc3ccccc3c2n1CCCCN(O)C(=O)NC(C)C,158 to 160
20,COC(=O)c1ccc(Sc2cccc(OCCCCl)c2)cc1,47 to 49
21,NC(=O)n1nc(-c2ccccc2)cc1N,255
22,Cc1nc2cc(NC(=O)c3cc4cc(F)cnc4n3Cc3ccncc3)ccc2n1C,263 to 265
23,COc1ccc(-c2cc(F)c(F)cc2-c2ccc(S(N)(=O)=O)cc2)cc1F,132 to 133

row,Structure (SMILES),melting point [°C]
1,Cc1ccc(Cn2ccc(CN3CCC(c4ccccc4)(c4ccccc4)CC3)n2)cc1C,139 to 140
2,CCC(C(CC(=O)OC)c1ccc(Cl)cc1Cl)[N+](=O)[O-] (configuration not stated),234 to 237
3,CCN(CC)CC#CC(=O)c1ccc(C)cc1,115 to 117
4,CC(Oc1ccc([N+](=O)[O-])cc1)C(=O)OCCOC(=O)C(C)Oc1ccc([N+](=O)[O-])cc1 (configuration not stated),118 to 120
5,CN(c1ccc(Br)cc1)S(=O)(=O)c1cccc(C(=O)Nc2ccc(F)cc2F)c1,119 to 120
6,CCC(CC)N1CC2=C3C(=NN(c4ccc(C(C)C)cc4Br)C(=O)N3CC2)C(C)=N1,149 to 150
7,Cc1cc(Oc2ccsc2C(F)(F)F)nc(-c2ccc(C(F)(F)F)cc2)c1,52.5 to 55.5
8,CC(C)(Cc1c[nH]c2ccccc12)NC[C@H](O)CO,77 to 77.8
9,O=C1NCN(c2ccccc2)C12CCN(CC1CCc3ccccc3O1)CC2 (configuration not stated),192 to 194
10,COc1ccc(-c2ccccc2)cc1NC(=O)c1ncc[nH]1,276
11,CN1CCC(Cn2nc(-c3c(-c4ccccc4)nn4ccccc34)ccc2=O)CC1,180 to 181
12,Cc1cccc2c1oc1c(NC(=O)c3ccccn3)n(C)nc12,167 to 168
13,COc1c(Cl)nc(C(=O)O)c(Cl)c1N,154 to 156
14,CNC(=O)c1cccc(C=O)c1,101 to 102
15,CCCCCCS(=O)(=O)c1nn2c(=O)c([N+](=O)[O-])c(OC)nc2s1,150 to 152
16,CCCCc1nc(SC)c(C(=O)O)n1Cc1ccc(-c2nc3ccccn3c2-c2nnn[nH]2)cc1,160
17,CCOC(Cc1ccc(OCCn2ccc3ccc(C(=O)C4CC4)nc32)cc1)C(=O)OC (configuration not stated),159
18,CN1C(=O)N(c2c(Cl)cccc2Cl)Cc2cnc(NCc3ccc(CN)cc3)nc21,151 to 152
19,CN1C(=O)C(NC(=O)OCc2ccccc2)N=C(c2ccccc2)c2ccccc21 (configuration not stated),78 to 80
20,C[C@@H](n1cnc2cc(Br)c(F)cc2c1=O)[C@](O)(Cn1cncn1)c1ccc(F)cc1F,185 to 186
21,O=C(Nc1cccc2c1C(=O)c1c-2n[nH]c1-c1ccc(N2CCNCC2)cc1)NN1CCN(CCO)CC1,279

# Results, then the compound that gave them:
row,melting point [°C],Structure (SMILES)
1,226 to 228,Cc1cccc(NC(=O)Nc2cccc3c2C2CC(=O)CCN2C3=O)n1 (configuration not stated)
2,170,COc1ccccc1C1(NCCC(=O)OC(C)(C)C)C(=O)Nc2ccc(Cl)cc21 (configuration not stated)
3,198 to 205,NC(=O)C1CCN(Cc2ccc(-c3cc4ncnc(Nc5ccc6[nH]ccc6c5)c4s3)cc2)CC1
4,78.9 to 80.2,CC(C)(C)OC(=O)N1CC2CN(c3nc(C4=NOC(c5c(F)cccc5F)C4)cs3)CC2C1 (configuration not stated)
5,207 to 212,O=C(O)COc1ccc2sc3ccccc3c(=O)c2c1
6,172 to 173,O=C(Nc1cccnn1)N1CCN(c2cncc(-c3ccc(F)cc3F)c2)CC1
7,232 to 233,O=C(Nc1cccnc1)N1CCN(c2nccc(-c3cccc(F)c3F)n2)CC1
8,201 to 202,Cn1ncc(/C=C/C(=O)Nc2ccc(CN)cc2)c1-c1ccc(F)cc1
9,224 to 226,O=C(Cn1nc(-c2cc(Cl)ccc2O)nc1-c1cc(Cl)ccc1O)NCCN1CCOCC1
10,182 to 183,CSc1nccc(-c2c(-c3ccc(F)cc3)ncn2C2CCNCC2)n1
11,> 300,CCCn1c(=O)c2nc(-c3ccc(/C=C/C(=O)O)cc3)[nH]c2n(C)c1=O
12,308 to 310,Cc1cc(-c2ccc(Cl)cc2)nc2c(C(=O)Nc3cccc(S(N)(=O)=O)c3)cnn12
13,81 to 82,O=C(O)c1cc(Cl)cc(Oc2cccc(C(F)(F)F)c2)n1
14,95.1,CCOc1ccc(C=[N+]([O-])C2CCCC2)cc1
15,188 to 189,Clc1ccc(C=Cc2nc3c(s2)NCCCC3)cc1
16,183,O=[N+]([O-])c1ccc2sc(NCCO)nc2c1
17,149 to 150,O=C(O)CCc1conc1-c1ccc(Cl)cc1
18,115 to 116,Cc1oc(-c2ccccc2)nc1CCOc1ccc(/C=C/CO)cn1
19,100 to 102,OC(CCN1CCN(c2ccccc2)CC1)COc1ccccc1Cl (configuration not stated)
20,116,O=c1nc(-c2ccnc(OCc3ccccc3)c2)sc2ccccc12
21,197,N#CC(c1ccc(Cl)cc1)c1ccc(-n2ncc(=O)[nH]c2=O)cc1Cl (configuration not stated)
22,170,Oc1ccc(Nc2nc(Cl)cc3ccccc23)cc1
23,250 to 252,COc1ccc2c(c1)[nH]c1c(C)nc3c(c12)C(=O)CC(C)(C)C3
24,55 to 57,O=Cc1c(F)ccc(Cl)c1Cl
25,105 to 107,Cc1ccc(S(=O)(=O)n2c(I)cc3cccnc32)cc1
26,164,Nn1c(=O)c(-c2cccs2)nc2ccccc21
27,208,Cc1cc(-n2ccnc2)c2cccc(OCc3c(Cl)ccc(S(=O)(=O)N4CCCC[C@H]4C(=O)O)c3Cl)c2n1
28,220 to 222,CC(=O)N1CCN(CC(=O)Nc2nc(-c3ccccc3)c(-c3ccc(=O)n(C(C)C)n3)s2)CC1
29,88 to 89,Cc1ccc2ccc3c(c2c1)C(C)(C)C(=O)O3
30,256 to 260,O=c1[nH]c2cc(F)ccc2n1-c1cc(Cl)ccc1O
